Each structure is given as a SMILES string.

For test [1], the target named is T1, AChE (Electrophorus electricus, UniProt O42275).
T1 construct: purchased Sigma-Aldrich, Hamburg, Germany
Kind of test: biochemical. The class given is biochemical. The following applies: for inhibition at 200 µM: 200 µM compound; for IC50: means ± SD of three experiments. On the procedure: (§1) AChE and BChE inhibitory activity of the newly synthesized pyrrole-based compounds was measured using the microplate assay described by Ellman et al. with the modifications added by López et al.. The compounds were tested at concentrations between 0.01 and 200 μM. First, they were dissolved in phosphate buffer (PBS) (8 mM K2HPO4, 2.3 mM NaH2PO4, 0.15 M NaCl, pH 7.5), assisted by the addition of no more than 5% MeOH. Then, they were serially diluted with PBS to provide the concentration range needed. Acetylcholinesterase from Electrophorus electricus and butyrylcholinesterase from equine serum (Sigma-Aldrich, Hamburg, Germany) were used with a substrate solution of 5,5′-dithiobis(2-nitrobenzoic acid) (DTNB) with acetylthiocholine iodide (ATCI) or butyrylthiocholine iodide (BTCI), respectively (0.04 M Na2HPO4, 0.2 mM DTNB, 0.24 mM ATCI or BTCI, pH 7.5). A total of 50 μL of AChE or BChE (0.25 U/mL, in PBS) and 50 μL of the tested compound solution were added to the wells. Incubation of the plates was performed at room temperature for 30 min. Then, 100 μL of substrate solution was added to start the enzymatic reaction. […] Enzyme activity was calculated as an inhibition percentage compared to an assay including buffer instead of an inhibitor.

Test [2] addresses T2, BChE (Equus caballus, UniProt P81908).
T2 construct: purchased Sigma-Aldrich, Hamburg, Germany; host or cells: equine serum
Kind of test: biochemical. Particulars: for IC50: means ± SD of three experiments, read-out: BChE IC50; for inhibition at 200 µM: read-out: Inhibition Activity 200 µM BChE. On the procedure:
as §1

Test [3] concerns the target T3, recombinant human MAO-A (hMAOA) (Homo sapiens, UniProt P21397).
T3 sequence (P21397 1-527): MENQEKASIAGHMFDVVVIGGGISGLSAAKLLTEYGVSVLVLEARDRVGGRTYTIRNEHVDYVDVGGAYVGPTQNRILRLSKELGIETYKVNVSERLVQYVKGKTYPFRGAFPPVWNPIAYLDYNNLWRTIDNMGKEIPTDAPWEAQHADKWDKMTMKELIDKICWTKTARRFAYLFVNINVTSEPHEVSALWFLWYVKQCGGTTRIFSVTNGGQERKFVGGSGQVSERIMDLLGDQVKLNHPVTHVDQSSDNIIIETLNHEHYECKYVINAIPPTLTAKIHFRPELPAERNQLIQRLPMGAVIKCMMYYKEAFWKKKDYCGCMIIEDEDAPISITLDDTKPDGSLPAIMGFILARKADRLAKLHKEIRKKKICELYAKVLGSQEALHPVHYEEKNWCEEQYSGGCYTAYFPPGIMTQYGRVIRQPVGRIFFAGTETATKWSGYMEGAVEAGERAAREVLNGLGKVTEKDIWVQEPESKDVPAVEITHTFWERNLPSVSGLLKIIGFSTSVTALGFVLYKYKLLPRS
Kind of test: MAO-A inhibition, fluorometric Amplex UltraRed assay. The following applies: for inhibition at 1 µM: 1 µM compound, read-out: Inhibition Activity 1 µM MAO-A; for IC50: means ± SD of three experiments, read-out: MAO-A IC50. In kind it is biochemical. On the procedure: (§2) Monoamine oxidase (MAO) activity for both recombinant human MAO-A (hMAOA) and MAO-B (hMAOB) was assessed using a fluorometric assay based on the Amplex® UltraRed reagent. This method, originally reported by Bautista-Aguilera et al. and later adapted with minor changes by Kasabova-Angelova et al., detects hydrogen peroxide or peroxidase activity present in enzymes or biological samples. In this assay, Amplex® Red reacts in a 1:1 molar ratio with hydrogen peroxide in the presence of peroxidase, producing the red-fluorescent compound resorufin. Due to resorufin’s strong extinction coefficient (58,000 ± 5000 cm^−1·M^−1), measurements could be accurately taken using either fluorometric or spectrophotometric methods. […] The control conditions included the use of purified hMAOA or hMAOB in reaction buffer, enzyme solutions with hydrogen peroxide, and buffer alone. All the test compounds were initially prepared at a 1 µM final concentration. These compounds were combined with either hMAOA or hMAOB and loaded into a 96-well plate (with eight replicates per test compound), followed by incubation for 30 min at 37 °C in the dark. Subsequently, a 50 µL detection mix was added to each well. This mix contained Amplex® Red, horseradish peroxidase (HRP), and tyramine substrate, all prepared in a reaction buffer. As this enzymatic reaction proceeded continuously, the fluorescence signal was recorded every 30 min (at 0, 30, 60, 90, 120, and 150 min) to track enzymatic kinetics.

The target of test [4] is T4, recombinant human MAO-B (hMAOB) (Homo sapiens, UniProt P27338).
T4 sequence (P27338 1-520): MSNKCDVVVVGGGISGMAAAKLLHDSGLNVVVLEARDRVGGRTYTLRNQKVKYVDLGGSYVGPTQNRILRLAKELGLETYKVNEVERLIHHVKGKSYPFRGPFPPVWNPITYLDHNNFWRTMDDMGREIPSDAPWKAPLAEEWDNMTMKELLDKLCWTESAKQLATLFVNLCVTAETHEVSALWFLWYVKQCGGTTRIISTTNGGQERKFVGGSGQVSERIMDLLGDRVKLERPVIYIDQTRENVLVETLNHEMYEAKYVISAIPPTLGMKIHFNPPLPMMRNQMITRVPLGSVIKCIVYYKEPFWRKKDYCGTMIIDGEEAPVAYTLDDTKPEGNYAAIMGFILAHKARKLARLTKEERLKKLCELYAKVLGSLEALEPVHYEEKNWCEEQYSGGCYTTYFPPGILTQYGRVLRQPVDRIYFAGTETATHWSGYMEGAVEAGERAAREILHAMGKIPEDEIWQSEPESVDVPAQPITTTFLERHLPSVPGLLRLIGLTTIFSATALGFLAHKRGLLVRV
Kind of test: biochemical. In kind it is biochemical. The following applies: for inhibition at 1 µM: 1 µM compound. The method, then: as §2

[5] abbreviates: means ± SD of three experiments.

T1 sequence (O42275 24-633): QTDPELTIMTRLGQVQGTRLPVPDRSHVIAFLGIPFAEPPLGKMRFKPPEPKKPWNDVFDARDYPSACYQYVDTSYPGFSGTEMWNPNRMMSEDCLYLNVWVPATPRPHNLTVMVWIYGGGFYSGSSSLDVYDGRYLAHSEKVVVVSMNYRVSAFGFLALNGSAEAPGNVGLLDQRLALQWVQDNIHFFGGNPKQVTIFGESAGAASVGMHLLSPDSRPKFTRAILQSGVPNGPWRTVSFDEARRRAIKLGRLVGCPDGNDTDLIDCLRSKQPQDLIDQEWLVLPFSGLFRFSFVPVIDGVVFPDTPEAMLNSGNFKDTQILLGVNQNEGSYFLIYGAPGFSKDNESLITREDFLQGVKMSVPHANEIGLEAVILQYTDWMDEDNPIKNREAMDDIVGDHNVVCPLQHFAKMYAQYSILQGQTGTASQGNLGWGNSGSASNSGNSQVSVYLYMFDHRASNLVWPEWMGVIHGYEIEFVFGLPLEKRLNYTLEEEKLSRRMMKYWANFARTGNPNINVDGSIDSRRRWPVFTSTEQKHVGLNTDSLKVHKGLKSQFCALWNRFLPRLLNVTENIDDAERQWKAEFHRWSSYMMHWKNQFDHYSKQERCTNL
T2 sequence (P81908 whole entry): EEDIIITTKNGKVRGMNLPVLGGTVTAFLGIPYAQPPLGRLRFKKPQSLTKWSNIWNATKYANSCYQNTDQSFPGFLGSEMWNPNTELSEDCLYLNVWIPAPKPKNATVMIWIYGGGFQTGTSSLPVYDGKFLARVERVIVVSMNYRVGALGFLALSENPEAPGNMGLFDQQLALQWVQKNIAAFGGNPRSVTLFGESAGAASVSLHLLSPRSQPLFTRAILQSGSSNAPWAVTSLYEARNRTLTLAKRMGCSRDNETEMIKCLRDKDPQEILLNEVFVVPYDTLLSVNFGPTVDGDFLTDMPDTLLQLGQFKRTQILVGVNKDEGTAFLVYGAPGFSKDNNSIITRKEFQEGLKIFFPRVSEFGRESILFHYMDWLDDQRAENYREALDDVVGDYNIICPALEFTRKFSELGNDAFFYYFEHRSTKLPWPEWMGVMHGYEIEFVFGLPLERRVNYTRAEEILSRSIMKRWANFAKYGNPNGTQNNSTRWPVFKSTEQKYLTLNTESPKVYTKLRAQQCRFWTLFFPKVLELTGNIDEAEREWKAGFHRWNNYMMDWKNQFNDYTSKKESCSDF

Take `Cc1ccc(C)n1CC(C)c1ccc(O)cc1` (centres unmarked) [EM-DC-11, 4-[1-(2,5-dimethyl-1H-pyrrol-1-yl)propan-2-yl]phenol]: the inhibition at 200 µM in test [1] stood at 29 ± 2.47%; in test [2], 30.6 ± 2.11%. For the same compound, the IC50 in test [1] was above 200 µM; in test [2] it was above 200 µM; in test [3] it was above 100 µM; in test [4] (setting [5]), above 100 µM. Further, the inhibition at 1 µM in test [3] is 97 ± 6.9%; in test [4], 97 ± 7.1%.

For the compound `Cc1ccc(C)n1CCc1ccc(Cl)cc1` [EM-DC-8, 1-[2-(4-chlorophenyl)ethyl]-2,5-dimethyl-1H-pyrrole], the figures for the inhibition at 200 µM in test [1] and in test [2] were 31.1 ± 2.48% and 35.4 ± 2.91%, respectively. The IC50 in test [1] is above 200 µM; in test [2], above 200 µM; in test [3], above 100 µM; in test [4] (setting [5]), above 100 µM. In addition, the inhibition at 1 µM was 99 ± 7.3% in test [3] and 99 ± 7.1% in test [4].

`Cc1ccc(C)n1-c1ccncc1` [EM-DC-12, 4-(2,5-dimethyl-1H-pyrrol-1-yl)pyridine]: the values for the inhibition at 200 µM in test [1] and in test [2] were 65.7 ± 3.25% and 73.2 ± 1.8%, respectively. The IC50 stood at 103 ± 5.85 µM in test [1], 72.8 ± 2.53 µM in test [2], 0.49 ± 0.1 µM in test [3] and 0.51 ± 0.1 µM in test [4] (setting [5]). Also, the inhibition at 1 µM was found to be 70 ± 6.9% in test [3] and 70 ± 7.1% in test [4]. Besides, the “MAO-B IC50” value in test [4] (setting [5]) was “submicromolar range”.

As to `Cc1ccc(C)n1CCN1CCOCC1` [EM-DC-16, 4-[2-(2,5-dimethyl-1H-pyrrol-1-yl)ethyl]morpholine], the figures for the inhibition at 200 µM in test [1] and in test [2] were 85.3 ± 2.43% and 48.8 ± 1.5%, respectively. In addition, the IC50 is 11.8 ± 1.1 µM in test [1], above 200 µM in test [2], 0.46 ± 0.1 µM in test [3] and 0.47 ± 0.1 µM in test [4] (setting [5]). Further, the inhibition at 1 µM in test [3] turned out to be 80 ± 7.3%; in test [4] it was 80 ± 7.1%.

As to `COc1cc2c(cc1OC)C(=O)C(CC1CCN(Cc3ccccc3)CC1)C2` (centres unmarked) [Donepezil, reference compound], the inhibition at 200 µM in test [2] was 92.25 ± 0.22%.

`Cc1ccc(C)n1-c1ccccc1Br` [EM-DC-3, 1-(2-bromophenyl)-2,5-dimethyl-1H-pyrrole]: the values for the inhibition at 200 µM in test [1] and in test [2] were 8.32 ± 2.64% and 0.04 ± 9.01%, respectively. Also, the concentration for half-maximal inhibition (IC50) in test [1] is above 200 µM; in test [2] it was above 200 µM; in test [3], 0.52 ± 0.1 µM; in test [4] (setting [5]), 0.56 ± 0.1 µM. The inhibition at 1 µM was determined as 70 ± 7.2% in test [3] and 75 ± 7.1% in test [4].

For `CCC(C(=O)O)n1c(C)ccc1C` (centres unmarked) [EM-DC-21, 2-(2,5-dimethyl-1H-pyrrol-1-yl)butanoic acid], the inhibition at 200 µM in test [1] and in test [2] was 0% in each case. In addition, the IC50 in test [1] was above 200 µM; in test [2], above 200 µM; in test [3], above 100 µM; in test [4] (setting [5]) it was above 100 µM. For the same compound, the inhibition at 1 µM in test [3] and in test [4] was 99 ± 7.1% in each case.

As for `Cc1ccc(C)n1C1CCN(Cc2ccccc2)CC1` [EM-DC-25, 1-benzyl-4-(2,5-dimethyl-1H-pyrrol-1-yl)piperidine], the inhibition at 200 µM worked out at 74.8 ± 1.47% in test [1] and 69.8 ± 0.81% in test [2]. Further, the half-inhibitory concentration (IC50) in test [1] was 87.2 ± 5.7 µM; in test [2] it was 104 ± 2.5 µM; in test [3] it was 0.33 ± 0.1 µM; in test [4] (setting [5]) it was above 100 µM. Further, the inhibition at 1 µM in test [3] was determined as 60 ± 7.1%; in test [4] it was 98 ± 7.1%.

With `CCC(C)Cn1c(C)ccc1C` (centres unmarked) [EM-DC-26, 2,5-dimethyl-1-(2-methylbutyl)-1H-pyrrole], the inhibition at 200 µM in test [1] is 12.8 ± 3.54%; in test [2] it was 68.2 ± 1.6%. Further, the IC50 in test [1] was above 200 µM; in test [2], 106.5 ± 0.7 µM; in test [3], above 100 µM; in test [4] (setting [5]) it was above 100 µM. Moreover, the inhibition at 1 µM in test [3] and in test [4] was 97 ± 7.1% in each case.

For `Cc1ccc(C)n1-c1ccc(O)cc1` [EM-DC-1, 4-(2,5-dimethyl-1H-pyrrol-1-yl)phenol], the results for the inhibition at 200 µM in test [1] and in test [2] were 7.52 ± 2.07% and 53.9 ± 2.14%, respectively. Besides, the IC50 in test [1] is above 200 µM; in test [2], 173 ± 7.3 µM; in test [3] it was 0.32 ± 0.1 µM; in test [4] (setting [5]) it was above 100 µM. Also, the inhibition at 1 µM in test [3] is 55 ± 7.1%; in test [4], 99 ± 7.1%.

In the case of `Cc1ccc(C)n1-c1ccc(O)c(C(=O)O)c1` [EM-DC-18, 5-(2,5-dimethyl-1H-pyrrol-1-yl)-2-hydroxybenzoic acid], the figures for the inhibition at 200 µM in test [1] and in test [2] were 16 ± 1.4% and 0%, respectively. For the same compound, the half-maximal inhibitory concentration (IC50) in test [1] was above 200 µM; in test [2] it was above 200 µM; in test [3], above 100 µM; in test [4] (setting [5]), above 100 µM. The results for the inhibition at 1 µM in test [3] and in test [4] were 98 ± 6.5% and 98 ± 7.1%, respectively.

`Cc1ccc(C)n1-c1ccc(C(=O)NCC(=O)O)cc1` [EM-DC-24, [4-(2,5-dimethyl-1H-pyrrol-1-yl)benzamido]acetic acid]: the inhibition at 200 µM is 24.1 ± 4.1% in test [1] and 0% in test [2]. The half-inhibitory concentration (IC50) in test [1] was above 200 µM; in test [2], above 200 µM; in test [3], 0.58 ± 0.1 µM; in test [4] (setting [5]) it was 0.59 ± 0.1 µM. Also, the inhibition at 1 µM in test [3] and in test [4] was 80 ± 7.1% each time.

As to `Cc1ccc(C)n1C(Cc1ccc(O)c(O)c1)C(=O)O` (centres unmarked) [EM-DC-23, 3-(3,4-dihydroxyphenyl)-2-(2,5-dimethyl-1H-pyrrol-1-yl)propanoicacid], the inhibition at 200 µM in test [1] is 21.8 ± 2.14%; in test [2], 0%. The IC50 is above 200 µM in test [1], above 200 µM in test [2], above 100 µM in test [3] and above 100 µM in test [4] (setting [5]). Also, the inhibition at 1 µM in test [3] is 98 ± 7.3%; in test [4] it was 98 ± 7.1%.

Turning to `Cc1ccc(C)n1C(CO)C(=O)O` (centres unmarked) [EM-DC-22, 2-(2,5-dimethyl-1H-pyrrol-1-yl)-3-hydroxypropanoic acid], the inhibition at 200 µM in test [1] and in test [2] was 0% each time. Moreover, the half-inhibitory concentration (IC50) in test [1] was above 200 µM; in test [2], above 200 µM; in test [3], above 100 µM; in test [4] (setting [5]), above 100 µM. Besides, the values for the inhibition at 1 µM in test [3] and in test [4] were 99 ± 7.2% and 99 ± 7.1%, respectively.

Take `COc1ccc2c3c1O[C@H]1C[C@@H](O)C=C[C@@]31CCN(C)C2` [Galanthamine, reference compound]: in test [2], the inhibition at 200 µM came to 89.16 ± 0.44%.

What is called inhibition is the relative decrease from the control value, in per cent. What is called IC50 is the concentration needed to halve the response being measured.

Values taken from paper PMC12655551, “Design, Synthesis, and Evaluation of Pyrrole-Based Selective MAO-B Inhibitors with Additional AChE Inhibitory and Neuroprotective Properties Identified via Virtual Screening” (Pharmaceuticals, 2025).
